Data as given in patent US20180369195A1, “COMBINATION THERAPY FOR TREATMENT OF MELANOMA” (The Regents of the University of California, priority 2015, published 2018).

How the values were obtained:
[1] = test system: DM738 melanoma cells; assay: CCK-8 proliferation assay, DM738; type: cell-based, human
Procedure: The same treatment regime was repeated on multiple melanoma cell lines with 20 μM 1-benzyl I3C and 200 μM I3C for 48 hours to compare the relative sensitivities of the different cell lines with distinct mutation profiles to 1-benzyl I3C and I3C. Cells were treated with 20 μM 1-benzyl I3C every 24 hours for 72 hours and harvested at 24, 48 and 72 hours for western blot and flow cytometric analysis. Cells were treated with 20 μM LiCl or 10 μM BIO for 48 hours before harvesting them for western blots.
To study the effect of I3C, cells were treated with or without 200 μM I3C every 24 hours for 72 hours and harvested at 24, 48 and 72 hours for western blot and flow cytometric analysis.
Subsequently inhibition of proliferation was assessed using Cell counting Kit-8 (Dojindo) as per the protocol in the user's manual. Briefly, 50 μl of the CCK-8 solution was added to each well along with 450 μl media and incubated for 2-3 hours. The absorbance was read at 450 nm and % inhibition was calculated for each condition standardizing DMSO to zero using the formula: [(100−Value of treatment/Value of DMSO treated control)×100]

[2] = test system: normal melanocytes; assay: Flow cytometry analysis of DNA content, normal melanocytes; type: cell-based; conditions: varying doses of 1-benzyl I3C, 48 hours
[3] = test system: MITF-M transcript; assay: RT-PCR analysis of MITF-M transcripts; type: cell-based, human; conditions: for MITF-M transcript levels: 200 μM I3C, 72 hour time course
Procedure: Total RNA was extracted from harvested cells using the RNeasy extraction kit for mammalian cells (obtained from Qiagen, Hercules, Calif.) and spectrophotometrically quantified by absorbance at 260 nm. Reverse transcription (RT) reactions were carried out using RT-MMLV reverse transcriptase (Invitrogen, Eugene, Oreg.) and the cDNA was used for polymerase chain reaction (PCR) reactions using 10 pM of the following primers: MITF-M forward 5′ CCGTCTCTCACTGGATTGGT 3′ (SEQ ID NO:1), MITF-M Reverse 5′ TACTTGGTGGGGTTTTCGAG 3′ (SEQ ID NO:2) GAPDH forward, […] (SEQ ID NO:3) and reverse, […] (SEQ ID NO:4). PCR conditions were as follows: 30 s at 94° C., 30 s at 55° C. and 30 s at 72° C. for 28 cycles. PCR products were electrophoretically fractionated in 1.5% agarose gels containing 0.01% Gel Red (Biotium) for DNA staining along with 1 kb plus DNA ladder (Thermo Scientific) and further visualized by a UV transilluminator.

[4] = test system: CDK 2, 4, 6; assay: Western blot of key cell cycle regulators; type: cell-based, human; conditions: melanoma cell lines, 1-benzyl I3C, 24, 48, 72 hours
Procedure: Western Blot analyses of samples electrophoretically fractionated on 12% acrylamide gels were carried out as previously described (Wagle et al., J. Clin. Oncol. 2011. 29(22):3085-3096; Nguyen et al., Chem. Biol. Interact. 2010. 186(3):255-266). Enhanced chemiluminescence (ECL) Lightening reagents were used to visualize the primary antibody bound protein bands in nitrocellulose membranes and the results captured on ECL Autoradiography Film (GE Healthcare, Piscataway, N.J.). The western blots employed the following primary antibodies: mouse anti-MITF-M (Thermo-scientific), mouse anti-HSP 90 (BD Biosciences), mouse anti-CDK2, rabbit anti-CDK4, rabbit anti-CDK-6, mouse anti-rabbit BRAF, goat anti-LEF-1, rabbit anti-AXIN, mouse anti-BCL2, (Santa Cruz), rabbit anti-P21, mouse anti-Cyclin D1, rabbit anti-MEK-p, rabbit anti-MEK1/2, rabbit anti-GSK3β rabbit anti-LRP6, rabbit anti-LRP6-phospho (Cell signaling), mouse anti-β-catenin (Invitrogen).

[5] = test system: phosphorylated Erk/MAPK; assay: Immunofluorescence of tumor xenograft sections for ERK-p; type: in vivo, human; conditions: I3C treated vs untreated animals
Procedure: Approximately 1 million G361 melanoma cells in a total volume of 0.1 ml of Matrigel were injected subcutaneously into each lateral flank of NIH III athymic nude mice. The resulting tumors were allowed to grow to a mean starting volume of 146±10 mm^3. The animals were then randomized into two groups; a vehicle control group that was treated with DMSO and an […] treated group that were injected daily with 200 mg/kg body weight of […]. The resulting tumor volumes were measured every other day for four weeks using calipers. The tumor volumes were calculated using the standard formula: […], and changes in tumor volumes were calculated using the formula: 100+{(Tf-Ti)/Ti×100}, where Tf is the final mean tumor volume and Ti is the initial mean tumor volume. At terminal sacrifice, tumor xenografts were harvested, and a portion of each tumor was fixed in 4% para-formaldehyde for 1 hour at room temperature, followed by a phosphate-buffered saline (PBS) wash and subsequently immersed in 3% sucrose overnight at 4° C. The resulting tissues were embedded in OCT and 10 μm thin sections were taken for immunofluorescence studies.

[6] = test system: RPMI-7951 cells; assay: CCK-8 proliferation assay, RPMI-7951; type: cell-based, human; conditions: 200 μM I3C, 72 hours; BRAF-V600E
Procedure: Cells were treated with 20 μM 1-benzyl I3C every 24 hours for 72 hours and harvested at 24, 48 and 72 hours for western blot and flow cytometric analysis. […] Subsequently inhibition of proliferation was assessed using Cell counting Kit-8 (Dojindo) as per the protocol in the user's manual. Briefly, 50 μl of the CCK-8 solution was added to each well along with 450 μl media and incubated for 2-3 hours. The absorbance was read at 450 nm and % inhibition was calculated for each condition standardizing DMSO to zero using the formula: [(100−Value of treatment/Value of DMSO treated control)×100]

[7] = test system: DM738 cells; assay: Flow cytometry analysis of DNA content, DM738; type: cell-based, human; conditions: maximal dose of 200 μM I3C
Procedure: Melanoma cells were treated with the indicated concentrations of 1-benzyl […] in triplicates every 24 hours and harvested at the end of 24, 48 or 72 hours for cell cycle analysis. The DNA content of propidium iodide stained nuclei from harvested cells were determined by flow cytometry. Briefly, cells were hypotonically lysed in […] of DNA staining solution (0.5 mg/mL propidium iodide, 0.1% sodium citrate, and 0.05% Triton-X 100). Emitted fluorescence from the nuclear of wavelengths more than 585 nm was measured with a Coulter Elite instrument with laser output adjusted to deliver 15 mW at 488 nm. Ten thousand nuclei were analyzed from each sample at a rate of 300-500 nuclei/second. The percentage of cells within the G1, S, and G2/M phases of the cell cycle were determined by analysis with the Multicycle computer program provided by Phoenix Flow Systems in the Cancer Research Laboratory Microchemical Facility of the University of California, Berkeley.

[8] = test system: BRN2; assay: Immunofluorescence of BRN2 localization; type: cell-based, human; conditions: G-361 cells, 200 μM I3C, 48 hours
[9] = test system: phosphorylated MEK; assay: Western blot of phosphorylated MEK; type: cell-based, human; conditions: 200 μM I3C, 72 hour time course
Procedure: Western Blot analyses of samples electrophoretically fractionated on 12% acrylamide gels were carried out as previously described (Wagle et al., J. Clin. Oncol. 2011. 29(22):3085-3096; Nguyen et al., Chem. Biol. Interact. 2010. 186(3):255-266). […] The western blots employed the following primary antibodies: mouse anti-MITF-M (Thermo-scientific), mouse anti-HSP 90 (BD Biosciences), mouse anti-CDK2, rabbit anti-CDK4, rabbit anti-CDK-6, mouse anti-rabbit BRAF, goat anti-LEF-1, rabbit anti-AXIN, mouse anti-BCL2, (Santa Cruz), rabbit anti-P21, mouse anti-Cyclin D1, rabbit anti-MEK-p, rabbit anti-MEK1/2, rabbit anti-GSK3β rabbit anti-LRP6, rabbit anti-LRP6-phospho (Cell signaling), mouse anti-β-catenin (Invitrogen).

OCc1cn(Cc2ccccc2)c2ccccc12 [1-benzyl I3C, 1-benzyl indole-3-carbinol]
fold lower concentration than I3C ([1]; 48 hours): 10-20 fold
optimum concentration for antiproliferation ([1]; 48 hours): 10 to 20 µM
antiproliferation compared with I3C ([1]; varying doses, 48 hours): significantly greater antiproliferation than I3C
G1 cell cycle arrest [2]: no comparable effect on normal melanocytes
MITF-M transcript level ([3]; G-361, DM738, SK-MEL-2 cells, 1-benzyl I3C): concomitant inhibition of MITF-M transcript level
levels of key cell cycle regulators [4]: downregulation of key cell cycle regulators like CDK 2, 4, 6

OCc1c[nH]c2ccccc12 [I3C, indole-3-carbinol]
level of phosphorylated Erk/MAPK in tumor xenografts [5]: strongly down regulated
sensitivity to anti-proliferative effects ([1]; 200 μM I3C, 72 hours, BRAF-V600E): Most sensitive
optimum concentration for antiproliferation ([1]; 48 hours): 200 to 300 µM
sensitivity to anti-proliferative effects [6]: Most sensitive
G1 cell cycle arrest [7]: significant G1 cell cycle arrest
MITF-M transcript levels ([3]; G-361 and DM738 cells): strongly down regulated MITF-M transcript levels
MITF-M transcript levels ([3]; SK-MEL-2 cells): modest increase in MITF-M transcript levels
nuclear localization of BRN2 [8]: disrupted the nuclear localization of Brn2
phosphorylated MEK levels ([9]; G-361 and DM738 cells): strongly down regulated
phosphorylated MEK levels ([9]; SK-MEL-2 cells): no effect
